Measurements as given in patent publication US10322110B2, “Imidazole-based antimicrobial agents” (priority 2014, dated 2019).
Converted amounts (≈) assume the structure as drawn. Like-named read-outs stand apart in the source and are kept apart here.

Columns and labels:
Format in all cases: cell-based
[1] = tested on: Streptococcus pneumoniae (Chester, ATCC49619); assay: broth microdilution MIC assay, Streptococcus pneumoniae; conditions: MIC100 class score, 24 h
[2] = tested on: Staphylococcus aureus MRSA (COL); assay: broth microdilution MIC assay, Staphylococcus aureus MRSA (COL); conditions: 24 h; for Antibacterial activity Staphylococcus aureus (MRSA): MIC100 class score, broth microdilution; for MIC: Staphylococcus aureus, MRSA, read-out: Antibacterial activity Staphylococcus aureus (MRSA)
[3] = tested on: Staphylococcus aureus MSSA (Newman); assay: broth microdilution MIC assay, Staphylococcus aureus MSSA (Newman); conditions: for MIC: Staphylococcus aureus; for Antibacterial activity Staphylococcus aureus (MSSA): MIC100 class score, broth microdilution
[4] = 24 h, read-out: Antibacterial activity Staphylococcus aureus (MSSA)

SMILES	Antibacterial activity Streptococcus pneumoniae [1]	MIC [3, 4] [µg/mL]	MIC [2] [µg/mL]	also measured
Cc1ccc(-c2nc(-c3nc(-c4ccccc4)c(C)[nH]3)co2)cc1 [Compound 57]	3 (MIC100 of 2-5 μg/ml)			
CCCc1[nH]c(-c2ccc(-c3ccc(Cl)cc3Cl)o2)nc1C [Compound 109]				Antibacterial activity Staphylococcus aureus (MRSA) [2]: 2 (MIC100 of 11-201 μg/ml)
CCCc1nc(-c2ccc(-c3ccccc3OC)o2)[nH]c1C [Compound 102]	3 (MIC100 of 2-5 μg/ml)			
Cc1ccc(-c2ccc(-c3nc(-c4ccccc4)c(C)[nH]3)s2)cc1 [Compound 54]	2 (MIC100 of 6-10 μg/ml)			
Cc1nc(-c2ccc(-c3ccccc3O)o2)[nH]c1-c1ccccc1 [Compound 149]		11 to 201 (≈ 34.8 to 635 µM)	20 to 50 (≈ 63.2 to 158 µM)	
Cc1nc(-c2ccc(-c3ccc(N4CCN(C)CC4)cc3)o2)[nH]c1-c1ccccc1 [Compound 141]			20 to 50 (≈ 50.2 to 125 µM)	
Cc1nc(-c2ccc(-c3ccc(O)cc3Cl)o2)[nH]c1-c1ccccc1 [Compound 158]		1 to 3 (≈ 2.85 to 8.55 µM)	1 to 3 (≈ 2.85 to 8.55 µM)	
CCCc1nc(-c2ccc(-c3c(C)cccc3C)o2)[nH]c1C [Compound 103]	3 (MIC100 of 2-5 μg/ml)			Antibacterial activity Staphylococcus aureus (MRSA) [2]: 3 (MIC100 of 3-10 μg/ml)
CCCc1[nH]c(-c2ccc(-c3ccccc3Cl)s2)nc1C [Compound 82]				Antibacterial activity Staphylococcus aureus (MRSA) [2]: 3 (MIC100 of 3-10 μg/ml)
Cc1nc(-c2ccc(-c3cc4ccccc4[nH]3)o2)[nH]c1-c1ccccc1 [Compound 160]		3 to 10 (≈ 8.84 to 29.5 µM)	11 to 201 (≈ 32.4 to 592 µM)	
Brc1ccccc1-c1ccc(-c2ncc(-c3ccccc3)[nH]2)o1 [Compound 83]	3 (MIC100 of 2-5 μg/ml)			
Cc1[nH]c(-c2csc(-c3cccc(Br)c3)n2)nc1-c1ccccc1 [Compound 14]	3 (MIC100 of 2-5 μg/ml)			
Cc1nc(-c2ccc(-c3ccc4cc(O)ccc4c3)o2)[nH]c1-c1ccccc1 [Compound 154]		11 to 201 (≈ 30 to 549 µM)	11 to 201 (≈ 30 to 549 µM)	
Cc1nc(-c2ccc(-c3cccc4cc[nH]c34)o2)[nH]c1-c1ccccc1 [Compound 161]		3 to 10 (≈ 8.84 to 29.5 µM)	1 to 3 (≈ 2.95 to 8.84 µM)	
Cc1nc(-c2ccc(-c3ccc4[nH]ccc4c3)o2)[nH]c1-c1ccccc1 [Compound 144]		3 to 10 (≈ 8.84 to 29.5 µM)	3 to 10 (≈ 8.84 to 29.5 µM)	
CCCc1nc(-c2csc(-c3ccccc3C(F)(F)F)c2)[nH]c1C [Compound 113]				Antibacterial activity Staphylococcus aureus (MRSA) [2]: 3 (MIC100 of 3-10 μg/ml)
Cc1nc(-c2ccc(-c3ccccc3Br)o2)[nH]c1C [Compound 84]			11 to 201 (≈ 34.7 to 634 µM)	
Cc1nc(-c2ccc(-c3cccc(F)c3)o2)[nH]c1-c1ccccc1 [Compound 146]		3 to 10 (≈ 9.42 to 31.4 µM)	3 to 10 (≈ 9.42 to 31.4 µM)	
Cc1ccc(-c2ncc(-c3nc(-c4ccccc4)c(C)[nH]3)s2)cc1 [Compound 55]	3 (MIC100 of 2-5 μg/ml)			
Cc1nc(-c2ccc(-c3cc4ccccc4o3)o2)[nH]c1-c1ccccc1 [Compound 140]			11 to 201 (≈ 32.3 to 591 µM)	
Cc1nc(-c2ccc(-c3ccc(O)cc3F)o2)[nH]c1-c1ccc(O)cc1 [Compound 120]	3 (MIC100 of 2-5 μg/ml)			Antibacterial activity Staphylococcus aureus (MSSA) ([3]; 24 h): 2 (MIC100 of 11-201 μg/ml)
Cc1nc(-c2ccc(-c3ccc(O)cc3)o2)[nH]c1-c1ccccc1 [Compound 150]		11 to 201 (≈ 34.8 to 635 µM)	11 to 201 (≈ 34.8 to 635 µM)	

SMILES	Antibacterial activity Streptococcus pneumoniae [1]	MIC [3, 4] [µg/mL]	MIC [2] [µg/mL]	also measured
CCCc1[nH]c(-c2ccc(-c3ccccc3[N+](=O)[O-])o2)nc1C [Compound 97]	2 (MIC100 of 6-10 μg/ml)			Antibacterial activity Staphylococcus aureus (MRSA) [2]: 2 (MIC100 of 11-201 μg/ml)
Cc1nc(-c2ccc(-c3ccc4cc[nH]c4c3)o2)[nH]c1-c1ccccc1 [Compound 152]		3 to 10 (≈ 8.84 to 29.5 µM)	3 to 10 (≈ 8.84 to 29.5 µM)	
Cc1[nH]c(-c2ccc(-c3ccccc3F)o2)nc1-c1ccc(O)cc1 [Compound 77]	3 (MIC100 of 2-5 μg/ml)			Antibacterial activity Staphylococcus aureus (MSSA) ([3]; 24 h): 3 (MIC100 of 3-10 μg/ml)
Fc1ccc(-c2ccc(-c3nc4ccccc4[nH]3)o2)c(F)c1 [Compound 122]	inactive			
Cc1[nH]c(-c2ccc(-c3cccc(Br)c3)s2)nc1-c1ccccc1 [Compound 13]	2 (MIC100 of 6-10 μg/ml)			
Cc1nc(-c2ccc(-c3cccc(O)c3)o2)[nH]c1-c1ccccc1 [Compound 145]		11 to 201 (≈ 34.8 to 635 µM)	20 to 50 (≈ 63.2 to 158 µM)	
Cc1nc(-c2ccc(-c3ccc(F)cc3)o2)[nH]c1-c1ccccc1 [Compound 148]		3 to 10 (≈ 9.42 to 31.4 µM)	3 to 10 (≈ 9.42 to 31.4 µM)	
CCCc1nc(-c2ccc(-c3ccccc3C)o2)[nH]c1C [Compound 100]	3 (MIC100 of 2-5 μg/ml)			Antibacterial activity Staphylococcus aureus (MRSA) [2]: 2 (MIC100 of 11-201 μg/ml)
Cc1[nH]c(-c2ccc(-c3cccc(F)c3)s2)nc1-c1ccccc1 [Compound 117]		20 to 50 (≈ 59.8 to 150 µM)		
Cc1nc(-c2ccc(-c3ccc(F)cc3F)o2)[nH]c1-c1ccccc1 [Compound 147]		1 to 3 (≈ 2.97 to 8.92 µM)	1 to 3 (≈ 2.97 to 8.92 µM)	
Fc1ccc(-c2ccc(-c3nc4ccccc4[nH]3)o2)cc1 [Compound 121]	inactive			
Cc1cc(F)ccc1-c1ccc(-c2nc(-c3ccccc3)c(C)[nH]2)o1 [Compound 164]		3 to 10 (≈ 9.03 to 30.1 µM)		
CCCc1nc(-c2coc(-c3ccccc3C(F)(F)F)c2)[nH]c1C [Compound 112]				Antibacterial activity Staphylococcus aureus (MRSA) [2]: 3 (MIC100 of 3-10 μg/ml)
CCCc1nc(-c2ccc(-c3ccc(C(F)(F)F)cc3)o2)[nH]c1C [Compound 104]	3 (MIC100 of 2-5 μg/ml)			Antibacterial activity Staphylococcus aureus (MRSA) [2]: 3 (MIC100 of 3-10 μg/ml)
Cc1[nH]c(-c2cnn(-c3ccccc3)c2)nc1-c1ccccc1 [Compound 167]			20 to 50 (≈ 66.6 to 166 µM)	
Cc1[nH]c(-c2ccc(-c3ccc(F)cc3)s2)nc1-c1ccccc1 [Compound 7]	3 (MIC100 of 2-5 μg/ml)			
CCCCc1nc(-c2ccc(-c3ccccc3C(F)(F)F)o2)[nH]c1C [Compound 90]	3 (MIC100 of 2-5 μg/ml)			
Cc1nc(-c2ccc(-c3ccc4occc4c3)o2)[nH]c1-c1ccccc1 [Compound 159]		3 to 10 (≈ 8.81 to 29.4 µM)	20 to 50 (≈ 58.8 to 147 µM)	
Cc1nc(-c2ccc(-c3ccc(O)c(Cl)c3)o2)[nH]c1-c1ccccc1 [Compound 157]		3 to 10 (≈ 8.55 to 28.5 µM)	11 to 201 (≈ 31.4 to 573 µM)	
Cc1[nH]c(-c2ccc(-c3ccccc3F)o2)nc1-c1ccccc1 [Compound 162]		3 to 10 (≈ 9.42 to 31.4 µM)	3 to 10 (≈ 9.42 to 31.4 µM)	
Cc1nc(-c2ccc(-c3ccc(O)cc3F)o2)[nH]c1-c1ccccc1 [Compound 168]		3 to 10 (≈ 8.97 to 29.9 µM)	3 to 10 (≈ 8.97 to 29.9 µM)	
Cc1[nH]c(-c2ccc(-c3ccccc3C(F)(F)F)o2)nc1-c1cccc(Cl)c1 [Compound 22]	3 (MIC100 of 2-5 μg/ml)			Antibacterial activity Staphylococcus aureus (MSSA) ([3]; 24 h): 2 (MIC100 of 11-201 μg/ml); MIC ([3]; read-out: Antibacterial activity MSSA (Staphylococcus aureus MSSA)): 11 to 201 µg/mL (≈ 27.3 to 499 µM)

SMILES	Antibacterial activity Streptococcus pneumoniae [1]	MIC [3, 4] [µg/mL]	MIC [2] [µg/mL]	also measured
CCCc1[nH]c(-c2ccc(-c3ccccc3)o2)nc1C [Compound 94]	3 (MIC100 of 2-5 μg/ml)			Antibacterial activity Staphylococcus aureus (MRSA) [2]: 3 (MIC100 of 3-10 μg/ml)
Cc1nc(-c2ccc(-c3ccc(O)cc3C(F)(F)F)o2)[nH]c1-c1ccccc1 [Compound 139]		1 to 3 (≈ 2.6 to 7.81 µM)	1 to 3 (≈ 2.6 to 7.81 µM)	
COc1cccc(-c2nc(-c3nc(-c4ccccc4)c(C)[nH]3)cs2)c1 [Compound 116]	3 (MIC100 of 2-5 μg/ml)			
CCCc1[nH]c(-c2ccc(-c3cc(F)ccc3C(F)(F)F)o2)nc1C [Compound 111]	3 (MIC100 of 2-5 μg/ml)			
CCCc1nc(-c2sc(-c3ccccc3C(F)(F)F)c3c2OCCO3)[nH]c1C [Compound 114]				Antibacterial activity Staphylococcus aureus (MRSA) [2]: 3 (MIC100 of 3-10 μg/ml)
Cc1nc(-c2ccc(-c3cccc(C(F)(F)F)c3)o2)[nH]c1-c1ccccc1 [Compound 142]		1 to 3 (≈ 2.71 to 8.14 µM)	1 to 3 (≈ 2.71 to 8.14 µM)	
Cc1[nH]c(-c2ccc(-c3cccc(Cl)c3)s2)nc1-c1ccccc1 [Compound 12]	3 (MIC100 of 2-5 μg/ml)			
Cc1nc(-c2ccc(-c3cccc4[nH]ccc34)o2)[nH]c1-c1ccccc1 [Compound 138]			11 to 201 (≈ 32.4 to 592 µM)	
CCCc1[nH]c(-c2ccc(-c3cccc4[nH]ccc34)o2)nc1C [Compound 108]	2 (MIC100 of 6-10 μg/ml)			Antibacterial activity Staphylococcus aureus (MRSA) [2]: 2 (MIC100 of 11-201 μg/ml)
Cc1nc(-c2ccc(-c3ccc(O)c(C(F)(F)F)c3)o2)[nH]c1-c1ccccc1 [Compound 155]		3 to 10 (≈ 7.81 to 26 µM)	11 to 201 (≈ 28.6 to 523 µM)	
CCCc1[nH]c(-c2ccc(-c3ccccc3C(F)(F)F)o2)nc1C [Compound 101]	3 (MIC100 of 2-5 μg/ml)			
Cc1nc(-c2ccc(-c3ccccc3OC(F)(F)F)o2)[nH]c1C [Compound 85]			1 to 3 (≈ 3.1 to 9.31 µM)	
Cc1[nH]c(-c2csc(-c3ccc(F)cc3)n2)nc1-c1ccccc1 [Compound 11]	3 (MIC100 of 2-5 μg/ml)			
Cc1[nH]c(-c2ccc(-c3ccccc3OC(F)(F)F)o2)nc1-c1ccc(O)cc1 [Compound 76]	3 (MIC100 of 2-5 μg/ml)			Antibacterial activity Staphylococcus aureus (MSSA) ([3]; 24 h): 3 (MIC100 of 3-10 μg/ml)
Cc1[nH]c(-c2ccc(-c3ccccc3)s2)nc1-c1ccccc1 [Compound 74]	3 (MIC100 of 2-5 μg/ml)			
Cc1nc(-c2ccc(-c3ccc(F)c(F)c3)o2)[nH]c1-c1ccccc1 [Compound 153]		3 to 10 (≈ 8.92 to 29.7 µM)	3 to 10 (≈ 8.92 to 29.7 µM)	
CCCc1nc(-c2ccc(-c3ccccc3N(C)C)o2)[nH]c1C [Compound 98]				Antibacterial activity Staphylococcus aureus (MRSA) [2]: 3 (MIC100 of 3-10 μg/ml)
FC(F)(F)c1ccccc1-c1ccc(-c2ncc(-c3ccccc3)[nH]2)o1 [Compound 75]		11 to 201 (≈ 31 to 567 µM)		
COc1ccc(-c2ccc(-c3nc(C)c(-c4ccc(O)cc4)[nH]3)o2)cc1 [Compound 79]	3 (MIC100 of 2-5 μg/ml)			
Cc1ccc(-c2nc(-c3nc(-c4ccccc4)c(C)[nH]3)cs2)cc1 [Compound 56]	3 (MIC100 of 2-5 μg/ml)			
Cc1[nH]c(-c2cnn(-c3ccc(F)cc3)c2)nc1-c1ccccc1 [Compound 166]		20 to 50 (≈ 62.8 to 157 µM)	20 to 50 (≈ 62.8 to 157 µM)	
